Measurements reported in PubChem BioAssay (NCI).
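Following 48 hours of exposure in 96-well plates, responses at five concentrations were used to interpolate endpoints linearly. GI50: concentration for 50% inhibition of growth. TGI denotes the concentration required for complete inhibition of growth.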

How the values were obtained:
Assay in all cases: NCI anticancer screen, dose series, 48 h
NCI-H226 lung = tested on: NCI-H226 lung
NCI-H23 lung = tested on: NCI-H23 lung
NCI-H460 lung = tested on: NCI-H460 lung
NCI-H522 lung = tested on: NCI-H522 lung
NCI/ADR-RES ovarian = tested on: NCI/ADR-RES ovarian
OVCAR-3 ovarian = tested on: OVCAR-3 ovarian
OVCAR-4 ovarian = tested on: OVCAR-4 ovarian
OVCAR-5 ovarian = tested on: OVCAR-5 ovarian
OVCAR-8 ovarian = tested on: OVCAR-8 ovarian
PC-3 prostate = tested on: PC-3 prostate
RPMI-8226 leukemia = tested on: RPMI-8226 leukemia
RXF 393 renal = tested on: RXF 393 renal
SF-268 CNS = tested on: SF-268 CNS
SF-295 CNS = tested on: SF-295 CNS
SF-539 CNS = tested on: SF-539 CNS
SK-MEL-2 melanoma = tested on: SK-MEL-2 melanoma
SK-MEL-28 melanoma = tested on: SK-MEL-28 melanoma
SK-MEL-5 melanoma = tested on: SK-MEL-5 melanoma
SK-OV-3 ovarian = tested on: SK-OV-3 ovarian
SN12C renal = tested on: SN12C renal
SNB-19 CNS = tested on: SNB-19 CNS
SNB-75 CNS = tested on: SNB-75 CNS
SR leukemia = tested on: SR leukemia
SW-620 colon = tested on: SW-620 colon
T-47D breast = tested on: T-47D breast
TK-10 renal = tested on: TK-10 renal
U251 CNS = tested on: U251 CNS
UACC-257 melanoma = tested on: UACC-257 melanoma
UACC-62 melanoma = tested on: UACC-62 melanoma
UO-31 renal = tested on: UO-31 renal

NS(=O)(=O)c1ccc(NC(=O)CSc2ccc(-c3ccc(Cl)cc3)nn2)c(Br)c1
TGI (NCI-H226 lung): 9.4 µM | GI50 (NCI-H23 lung): 11.1 µM | TGI (NCI-H23 lung): 23.2 µM | GI50 (NCI-H460 lung): 7.22 µM | TGI (NCI-H460 lung): 22.3 µM | GI50 (NCI-H522 lung): 10.5 µM | TGI (NCI-H522 lung): 26.3 µM | GI50 (NCI/ADR-RES ovarian): 7.75 µM | TGI (NCI/ADR-RES ovarian): > 100 µM | GI50 (OVCAR-3 ovarian): 12.9 µM | TGI (OVCAR-3 ovarian): 27.6 µM | GI50 (OVCAR-4 ovarian): 10.4 µM | TGI (OVCAR-4 ovarian): 42.6 µM | GI50 (OVCAR-5 ovarian): 17.2 µM | TGI (OVCAR-5 ovarian): 51 µM | GI50 (OVCAR-8 ovarian): 10.3 µM | TGI (OVCAR-8 ovarian): 24.7 µM | GI50 (PC-3 prostate): 8.97 µM | TGI (PC-3 prostate): 49.2 µM | GI50 (RPMI-8226 leukemia): 96.9 µM | TGI (RPMI-8226 leukemia): > 100 µM | GI50 (RXF 393 renal): 2990 nM | TGI (RXF 393 renal): 13.8 µM | GI50 (SF-268 CNS): 7.22 µM | TGI (SF-268 CNS): 34.4 µM | GI50 (SF-295 CNS): 5.13 µM | TGI (SF-295 CNS): 16.1 µM | GI50 (SF-539 CNS): 4.15 µM | TGI (SF-539 CNS): 15.8 µM | GI50 (SK-MEL-2 melanoma): 15.8 µM | TGI (SK-MEL-2 melanoma): 32 µM | GI50 (SK-MEL-28 melanoma): 12.3 µM | TGI (SK-MEL-28 melanoma): 28.8 µM | GI50 (SK-MEL-5 melanoma): 10.2 µM | TGI (SK-MEL-5 melanoma): 21.9 µM | GI50 (SK-OV-3 ovarian): 4.39 µM | TGI (SK-OV-3 ovarian): 15.1 µM | GI50 (SN12C renal): 26.1 µM | TGI (SN12C renal): 83.3 µM | GI50 (SNB-19 CNS): 3.75 µM | TGI (SNB-19 CNS): 14.9 µM | GI50 (SNB-75 CNS): 1790 nM | TGI (SNB-75 CNS): 15 µM | GI50 (SR leukemia): 50.5 µM | TGI (SR leukemia): > 100 µM | GI50 (SW-620 colon): 32.8 µM | TGI (SW-620 colon): > 100 µM | GI50 (T-47D breast): 4.59 µM | TGI (T-47D breast): 21.8 µM | GI50 (TK-10 renal): 18 µM | TGI (TK-10 renal): 38.9 µM | GI50 (U251 CNS): 5.15 µM | TGI (U251 CNS): 21.7 µM | GI50 (UACC-257 melanoma): 31.4 µM | TGI (UACC-257 melanoma): > 100 µM | GI50 (UACC-62 melanoma): 13.7 µM | TGI (UACC-62 melanoma): 34.1 µM | GI50 (UO-31 renal): 29.5 µM | TGI (UO-31 renal): > 100 µM
